Drawing on patent US9499550B2 (BRISTOL-MYERS SQUIBB COMPANY, priority 2012, dated 2016), this text covers EC50 for eleven compounds.

Experiment [1] deals with HCV genotype 1a (H77 strain) replicon in HUH-7 cells. The experiment can be described thus: HCV replicon luciferase reporter assay, genotype 1a. It is filed as cell-based. Particulars: Hepatitis C virus, Huh-7, 72 h, HCV genotype 1a replicon luciferase, 3 days incubation. In short, it runs like this: (§1)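 Replicon inhibition for both genotypes was measured as Renilla luciferase signal (EnduRen, 7.5 μM final, 2 h) after 3-day, 37° C exposure of replicon-bearing HUH-7 cells in 4% FCS DMEM, 0.5% DMSO. The 1b construct carries S1179I; the 1a H77 construct carries P1496L and S2204I. Twenty-point, 3-fold dilutions were fitted four-parametrically for EC50, and CC50 was taken from multiplexed Cell Titer-Blue.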
For orientation: Replicon systems follow genome replication, usually without infectious particles.

The test system of experiment [2] is HCV genotype 1b (Con1) replicon in HUH-7 cells. Briefly: HCV replicon luciferase reporter assay, genotype 1b. It is filed as cell-based. Particulars: Hepatitis C virus, Huh-7, 72 h, HCV genotype 1b replicon luciferase, 3 days incubation. The procedure, abridged:
as §1

As usually defined, the EC50 is the concentration needed to bring the measured effect to its halfway point.

Read-outs that look alike come from different tables or passages of the source.

For `COc1ccc2c(O[C@@H]3C[C@H]4C(=O)N[C@]5(C(=O)NS(=O)(=O)C6CC6)C[C@H]5/C=C\CC[C@@H](C)C[C@@H](C)[C@H](NC(=O)OC(C)(C)C)C(=O)N4C3)nc(-c3ccc4c(c3)OCCO4)cc2c1` [Compound 5239, tert-butyl ((2R,6S,7R,9R,13aS,14aR,16aS,Z)-14a-((cyclopropylsulfonyl)carbamoyl)-2-((3-(2,3-dihydrobenzo[b][1,4]dioxin-6-yl)-6-methoxyisoquinolin-1-yl)oxy)-7,9-dimethyl-5,16-dioxo-1,2,3,5,6,7,8,9,10,11,13a,14,14a,15,16,16a-hexadecahydrocyclopropa[e]pyrrolo[1,2-a][1,4]diazacyclopentadecin-6-yl)carbamate], the EC50 was below 5.46 nM in experiment [1] (read-out: LE_1a (EC50, range)) and below 5.46 nM in experiment [2] (read-out: LE_1b (EC50, range)).
On to `COc1ccc2c(O[C@@H]3C[C@H]4C(=O)N[C@]5(C(=O)NS(=O)(=O)C6CC6)C[C@H]5/C=C\CC[C@@H](C)C[C@@H](C)[C@H](NC(=O)OC(C)(C)C(C)(F)F)C(=O)N4C3)nc(-c3ccc4c(c3)OCCO4)cc2c1` [Compound 5241, 3,3-difluoro-2-methylbutan-2-yl((2R,6S,7R,9R,13aS,14aR,16aS,Z)-14a-((cyclopropylsulfonyl)carbamoyl)-2-((3-(2,3-dihydrobenzo[b][1,4]dioxin-6-yl)-6-methoxyisoquinolin-1-yl)oxy)-7,9-dimethyl-5,16-dioxo-1,2,3,5,6,7,8,9,10,11,13a,14,14a,15,16,16a-hexadecahydrocyclopropa[e]pyrrolo[1,2-a][1,4]diazacyclopentadecin-6-yl)carbamate], for which the EC50 was below 5.46 nM in experiment [1] (read-out: LE_1a (EC50, range)) and below 5.46 nM in experiment [2] (read-out: LE_1b (EC50, range)).
`COc1ccc2c(O[C@@H]3C[C@H]4C(=O)N[C@]5(C(=O)NS(=O)(=O)C6CC6)C[C@H]5/C=C\CC[C@@H](C)C[C@@H](C)[C@H](NC(=O)OC(C)(C)C(F)(F)F)C(=O)N4C3)nc(-c3ccc4c(c3)OCCO4)cc2c1` [Compound 5243, 1,1,1-trifluoro-2-methylpropan-2-yl((2R,6S,7R,9R,13aS,14aR,16aS,Z)-14a-((cyclopropylsulfonyl)carbamoyl)-2-((3-(2,3-dihydrobenzo[b][1,4]dioxin-6-yl)-6-methoxyisoquinolin-1-yl)oxy)-7,9-dimethyl-5,16-dioxo-1,2,3,5,6,7,8,9,10,11,13a,14,14a,15,16,16a-hexadecahydrocyclopropa[e]pyrrolo[1,2-a][1,4]diazacyclopentadecin-6-yl)carbamate]: the EC50 is below 5.46 nM in experiment [1] (read-out: LE_1a (EC50, range)) and below 5.46 nM in experiment [2] (read-out: LE_1b (EC50, range)).
As for `C[C@H]1CC/C=C\[C@@H]2C[C@@]2(C(=O)NS(=O)(=O)C2(C)CC2)NC(=O)[C@@H]2C[C@@H](Oc3nccc4c5c(ccc34)OCCO5)CN2C(=O)[C@@H](NC(=O)OC(C)(C)C)[C@H](C)C1` [Compound 5244, tert-butyl ((2R,6S,7R,9S,13aS,14aR,16aS,Z)-2-((2,3-dihydro-[1,4]dioxino[2,3-f]isoquinolin-7-yl)oxy)-7,9-dimethyl-14a-(((1-methylcyclopropyl)sulfonyl)carbamoyl)-5,16-dioxo-1,2,3,5,6,7,8,9,10,11,13a,14,14a,15,16,16a-hexadecahydrocyclopropa[e]pyrrolo[1,2-a][1,4]diazacyclopentadecin-6-yl)carbamate], the concentration giving a half-maximal response (EC50) in experiment [1] (read-out: LE_1a (EC50, range)) lay in the range of 4.82 to 103 nM; in experiment [2] (read-out: LE_1b (EC50, range)) it was 4.82 to 103 nM.
As for `C[C@@H]1CC/C=C\[C@@H]2C[C@@]2(C(=O)NS(=O)(=O)C2(C)CC2)NC(=O)[C@@H]2C[C@@H](Oc3nccc4c5c(ccc34)OCCO5)CN2C(=O)[C@@H](NC(=O)OC(C)(C)C)[C@H](C)C1` [Compound 5245, tert-butyl ((2R,6S,7R,9R,13aS,14aR,16aS,Z)-2-((2,3-dihydro-[1,4]dioxino[2,3-f]isoquinolin-7-yl)oxy)-7,9-dimethyl-14a-(((1-methylcyclopropyl)sulfonyl)carbamoyl)-5,16-dioxo-1,2,3,5,6,7,8,9,10,11,13a,14,14a,15,16,16a-hexadecahydrocyclopropa[e]pyrrolo[1,2-a][1,4]diazacyclopentadecin-6-yl)carbamate], the EC50 in experiment [1] (read-out: LE_1a (EC50, range)) was below 5.46 nM; in experiment [2] (read-out: LE_1b (EC50, range)), below 5.46 nM.
`C[C@H]1CC/C=C\[C@@H]2C[C@@]2(C(=O)NS(=O)(=O)C2(C)CC2)NC(=O)[C@@H]2C[C@@H](Oc3nccc4c5c(ccc34)OCCO5)CN2C(=O)[C@@H](NC(=O)OC(C)(C)C(F)(F)F)[C@H](C)C1` [Compound 5246, 1,1,1-trifluoro-2-methylpropan-2-yl((2R,6S,7R,9S,13aS,14aR,16aS,Z)-2-((2,3-dihydro-[1,4]dioxino[2,3-f]isoquinolin-7-yl)oxy)-7,9-dimethyl-14a-(((1-methylcyclopropyl)sulfonyl)carbamoyl)-5,16-dioxo-1,2,3,5,6,7,8,9,10,11,13a,14,14a,15,16,16a-hexadecahydrocyclopropa[e]pyrrolo[1,2-a][1,4]diazacyclopentadecin-6-yl)carbamate]: the half-maximal effective concentration (EC50) in experiment [1] (read-out: LE_1a (EC50, range)) lay within 4.82 to 103 nM; in experiment [2] (read-out: LE_1b (EC50, range)), 4.82 to 103 nM.
`C[C@@H]1CC/C=C\[C@@H]2C[C@@]2(C(=O)NS(=O)(=O)C2(C)CC2)NC(=O)[C@@H]2C[C@@H](Oc3nccc4c5c(ccc34)OCCO5)CN2C(=O)[C@@H](NC(=O)OC(C)(C)C(F)(F)F)[C@H](C)C1` [Compound 5247, 1,1,1-trifluoro-2-methylpropan-2-yl((2R,6S,7R,9R,13aS,14aR,16aS,Z)-2-((2,3-dihydro-[1,4]dioxino[2,3-f]isoquinolin-7-yl)oxy)-7,9-dimethyl-14a-(((1-methylcyclopropyl)sulfonyl)carbamoyl)-5,16-dioxo-1,2,3,5,6,7,8,9,10,11,13a,14,14a,15,16,16a-hexadecahydrocyclopropa[e]pyrrolo[1,2-a][1,4]diazacyclopentadecin-6-yl)carbamate]: the EC50 was below 5.46 nM in experiment [1] (read-out: LE_1a (EC50, range)) and below 5.46 nM in experiment [2] (read-out: LE_1b (EC50, range)).
As to `C[C@H]1CC/C=C\[C@@H]2C[C@@]2(C(=O)NS(=O)(=O)C2(C)CC2)NC(=O)[C@@H]2C[C@@H](Oc3nccc4c5c(ccc34)OCCO5)CN2C(=O)[C@@H](NC(=O)O[C@@H]2C[C@@H]3C[C@@H]3C2)[C@H](C)C1` [Compound 5248, (1R,3r,5 S)-bicyclo[3.1.0]hexan-3-yl((2R,6S,7R,9S,13aS,14aR,16aS,Z)-2-((2,3-dihydro-[1,4]dioxino[2,3-f]isoquinolin-7-yl)oxy)-7,9-dimethyl-14a-(((1-methylcyclopropyl)sulfonyl)carbamoyl)-5,16-dioxo-1,2,3,5,6,7,8,9,10,11,13a,14,14a,15,16,16a-hexadecahydrocyclopropa[e]pyrrolo[1,2-a][1,4]diazacyclopentadecin-6-yl)carbamate], the 50% effective concentration (EC50) is 4.82 to 103 nM in experiment [1] (read-out: LE_1a (EC50, range)) and below 5.46 nM in experiment [2] (read-out: LE_1b (EC50, range)).
In the same order, the values of `C[C@@H]1CC/C=C\[C@@H]2C[C@@]2(C(=O)NS(=O)(=O)C2(C)CC2)NC(=O)[C@@H]2C[C@@H](Oc3nccc4c5c(ccc34)OCCO5)CN2C(=O)[C@@H](NC(=O)O[C@@H]2C[C@@H]3C[C@@H]3C2)[C@H](C)C1` [Compound 5249, (1R,3r,5 S)-bicyclo[3.1.0]hexan-3-yl((2R,6S,7R,9R,13aS,14aR,16aS,Z)-2-((2,3-dihydro-[1,4]dioxino[2,3-f]isoquinolin-7-yl)oxy)-7,9-dimethyl-14a-(((1-methylcyclopropyl)sulfonyl)carbamoyl)-5,16-dioxo-1,2,3,5,6,7,8,9,10,11,13a,14,14a,15,16,16a-hexadecahydrocyclopropa[e]pyrrolo[1,2-a][1,4]diazacyclopentadecin-6-yl)carbamate] are below 5.46 nM and below 5.46 nM.
In the case of `C[C@H]1CC/C=C\[C@@H]2C[C@@]2(C(=O)NS(=O)(=O)C2(C)CC2)NC(=O)[C@@H]2C[C@@H](Oc3nccc4c5c(ccc34)OCCO5)CN2C(=O)[C@@H](NC(=O)OCC2(C)CC2)[C@H](C)C1` [Compound 5250, (1-methylcyclopropyl)methyl ((2R,6S,7R,9S,13aS,14aR,16aS,Z)-2-((2,3-dihydro-[1,4]dioxino[2,3-f]isoquinolin-7-yl)oxy)-7,9-dimethyl-14a-(((1-methylcyclopropyl)sulfonyl)carbamoyl)-5,16-dioxo-1,2,3,5,6,7,8,9,10,11,13a,14,14a,15,16,16a-hexadecahydrocyclopropa[e]pyrrolo[1,2-a][1,4]diazacyclopentadecin-6-yl)carbamate], the EC50 in experiment [1] (read-out: LE_1a (EC50)) was 22.6 nM; in experiment [1] (read-out: LE_1a (EC50, range)), 4.82 to 103 nM; in experiment [2] (read-out: LE_1b (EC50)) it was 5.5 nM; in experiment [2] (read-out: LE_1b (EC50, range)), 4.82 to 103 nM.
Regarding `C[C@@H]1CC/C=C\[C@@H]2C[C@@]2(C(=O)NS(=O)(=O)C2(C)CC2)NC(=O)[C@@H]2C[C@@H](Oc3nccc4c5c(ccc34)OCCO5)CN2C(=O)[C@@H](NC(=O)OCC2(C)CC2)[C@H](C)C1` [Compound 5251, (1-methylcyclopropyl)methyl ((2R,6S,7R,9R,13aS,14aR,16aS,Z)-2-((2,3-dihydro-[1,4]dioxino[2,3-f]isoquinolin-7-yl)oxy)-7,9-dimethyl-14a-(((1-methylcyclopropyl)sulfonyl)carbamoyl)-5,16-dioxo-1,2,3,5,6,7,8,9,10,11,13a,14,14a,15,16,16a-hexadecahydrocyclopropa[e]pyrrolo[1,2-a][1,4]diazacyclopentadecin-6-yl)carbamate], the EC50 was below 5.46 nM in experiment [1] (read-out: LE_1a (EC50, range)) and below 5.46 nM in experiment [2] (read-out: LE_1b (EC50, range)).
